Results: patent US6482921B1, “Uridyl peptide antibiotic (UPA) derivatives, their synthesis and use” (Essential Therapeutics, Inc., priority 1999, dated 2002)
Values after ≈ are worked out from the molar mass of the structure shown.

Columns and labels:
Format in all cases: cell-based
[1] = tested on: Pseudomonas aeruginosa PAM 1154; test: MIC broth microdilution, P. aeruginosa PAM 1154 (OprM::Hg); details: P. aeruginosa PAM 1154 OprM::Hg
[2] = tested on: Escherichia Coli MC 4100 AcrAB; test: MIC broth microdilution, E. coli MC 4100 AcrAB (ΔAcrAB); details: E. coli AcrAB
Escherichia Coli MC 4100 = test: MIC broth microdilution, E. coli MC 4100 (wild type); details: E. coli MC 4100
[3] = tested on: Pseudomonas aeruginosa PAM 1135; test: MIC broth microdilution, P. aeruginosa PAM 1135 (high level UPA resistance); details: P. aeruginosa PAM 1135 UPA1^r
[4] = tested on: Pseudomonas aeruginosa PAM 1323; test: MIC broth microdilution, P. aeruginosa PAM 1323 (medium level UPA resistance)
Procedure: Compounds were tested against several panels of bacteria. In a first panel, Table 3, several strains of Pseudomonas aeruginosa, Escherichia coli and Staphylococcus aureus were employed as the target bacteria.
For the bacteria in Table 3, the assay was performed in Mueller-Hinton Broth (MHB) with a final bacterial inoculum of 5×10^5 CFU/ml and a final volume of 100 μl. Control drugs, including imipenem and pacidimycin 4, and the test compounds were prepared at a concentration which was twice the desired final concentration (256 μg/ml). Dilution of the controls and the test compounds was accomplished directly on the test plates by serial 2-fold dilution using a multi-channel pipette. Both a positive and a negative growth control was included in each plate.
The bacterial inocula were prepared as follows. Bacterial strains were grown overnight at 35° C. in MHB. […] The culture was then diluted 1:10 and allowed to grow for an additional one hour at 35° C. in a shaking incubator. The inocula were then prepared by diluting the early log phase (one hour) cultures 1:2000 with fresh MHB. A volume of 50 μl of the inocula was added to each well, resulting in an inoculum of approximately 5×10^5 CFU/ml. The exact inocula were determined by putting 10 μl of 10-fold serial dilution of the bacterial suspensions onto TSA. After overnight incubation at 35° C., colony-forming units were counted manually.
The microtiter plates were incubated for 20 hours at 35° C. and were then read using a microtiterplate reader (Molecular Devices) at 650 nm as well as being visually observed using a microtiterplate reading mirror.

[5] = tested on: Staphylococcus aureus 8325-4; test: MIC broth microdilution, S. aureus 8325-4 (wild type); details: S. aureus 8325-4
[6] = tested on: Staphylococcus aureus ATCC 29213; test: MIC broth microdilution, S. aureus ATCC 29213 (wild type); details: S. aureus ATCC 29213
[7] = tested on: Pseudomonas aeruginosa PAM 1020; test: MIC broth microdilution, P. aeruginosa PAM 1020 (wild type); details: P. aeruginosa PAM 1020
[8] = tested on: Pasteurella multocida pm002; test: MIC broth microdilution, P. multocida pm002 (wild type)
[9] = tested on: Escherichia Coli MC 4100 AcrAB UPA3r; test: MIC broth microdilution, E. coli MC 4100 AcrAB UPA3r (ΔAcrAB, UPA resistant); details: E. coli AcrAB UPA3^r

SMILES | MIC (μg/ml) Broth microdilution [1] | MIC (μg/ml) Broth microdilution [2] | MIC (μg/ml) Broth microdilution (Escherichia Coli MC 4100) | MIC (μg/ml) Broth microdilution [3] | MIC (μg/ml) Broth microdilution [4] | MIC (μg/ml) Broth microdilution [5] | MIC (μg/ml) Broth microdilution [6] | MIC (μg/ml) Broth microdilution [7] | MIC (μg/ml) Broth microdilution [8] | MIC (μg/ml) Broth microdilution [9]
CC(C(NC(=O)C(Cc1ccccc1)NC(=O)NC(Cc1ccc(O)cc1)C(=O)O)C(=O)NCC1CC(O)C(n2ccc(=O)[nH]c2=O)O1)N(C)C(=O)C(N)Cc1ccccc1 [Compound 100, 1-[5′-[(2S,3S)-N^2-[N-[[(1S)-1-Carboxy-4-hydroxyphenethyl]carbamoyl]-L-phenylalanyl]-N^3-L-phenylalanyl-N^3-methyl-2,3-diaminobutyramido]-3′,5′-dideoxy-α-L-arabinofuranosyl]uracil] | 8 µg/mL (≈ 9.49 µM) | <1 µg/mL | 8 µg/mL (≈ 9.49 µM) | >512 µg/mL | >512 µg/mL | 512 µg/mL (≈ 607 µM) | >512 µg/mL | 32 µg/mL (≈ 38 µM) | 256 µg/mL (≈ 304 µM) | 2 µg/mL (≈ 2.37 µM)
CC(C)CC(N)C(=O)N(C)C(C)C(NC(=O)C(Cc1ccccc1)NC(=O)NC(Cc1ccc(O)cc1)C(=O)O)C(=O)NCC1CC(O)C(n2ccc(=O)[nH]c2=O)O1 [Compound 101, 1-[5′-[(2S,3S)-N^2-[N-[[(1S)-1-Carboxy-4-hydroxyphenethyl]carbamoyl]-L-phenylalanyl]-N^3-L-leucyl-N^3-methyl-2,3-diaminobutyramido]-3′,5′-dideoxy-α-L-arabinofuranosyl]uracil] | 8 µg/mL (≈ 9.89 µM) | 2 µg/mL (≈ 2.47 µM) | >512 µg/mL | >512 µg/mL | >512 µg/mL | >512 µg/mL | >512 µg/mL | 128 µg/mL (≈ 158 µM) | >512 µg/mL | 128 µg/mL (≈ 158 µM)
CC(C(NC(=O)C(Cc1ccccc1)NC(=O)NC(Cc1ccc(O)cc1)C(=O)O)C(=O)NCC1CC(O)C(n2ccc(=O)[nH]c2=O)O1)N(C)C(=O)CN [Compound 102, 1-[5′-[(2S,3S)-N^2-[N-[[(1S)-1-Carboxy-4-hydroxyphenethyl]carbamoyl]-L-phenylalanyl]-N^3-glycyl-N^3-methyl-2,3-diaminobutyramido]-3′,5′-dideoxy-α-L-arabinofuranosyl]uracil] | 8 µg/mL (≈ 10.6 µM) | <1 µg/mL | 512 µg/mL (≈ 680 µM) | >512 µg/mL | 512 µg/mL (≈ 680 µM) | 512 µg/mL (≈ 680 µM) | >512 µg/mL | 32 µg/mL (≈ 42.5 µM) | 256 µg/mL (≈ 340 µM) | 16 µg/mL (≈ 21.3 µM)
CSCCC(NC(=O)NC(Cc1ccc(O)cc1)C(=O)O)C(=O)NC(C(=O)NCC1CC(O)C(n2ccc(=O)[nH]c2=O)O1)C(C)N(C)C(=O)CN [Compound 104, 1-[5′[(2S,3S)-N^2-(N-[[(1S)-1-Carboxy-4-hydroxyphenethyl]carbamoyl]-L-methionyl]-N^3-glycyl-N^3-methyl-2,3-diaminobutyramidol-3′,5′-dideoxy-α-L-arabinofuranosyl]uracil] | 4 µg/mL (≈ 5.43 µM) | 16 µg/mL (≈ 21.7 µM) | <512 µg/mL | >512 µg/mL | <512 µg/mL | >512 µg/mL | >512 µg/mL | 32 µg/mL (≈ 43.4 µM) | 256 µg/mL (≈ 347 µM) | 128 µg/mL (≈ 174 µM)
CC(C(NC(=O)C(Cc1ccc(F)cc1)NC(=O)NC(Cc1ccc(O)cc1)C(=O)O)C(=O)NCC1CC(O)C(n2ccc(=O)[nH]c2=O)O1)N(C)C(=O)C(N)Cc1ccc(F)cc1 [Compound 105, 1-[5′[(2S,3S)-N^2-[N-[[(1S)-1-Carboxy-4-hydroxyphenethyl]carbamoyl]-L-4-fluorophenylalanyl]-N^3-L-4-fluorophenylalanyl-N^3-methyl-2,3-diaminobutyramido]-3′,5′-dideoxy-α-L-arabinofuranosyl]uracil] | 64 µg/mL (≈ 72.8 µM) | 16 µg/mL (≈ 18.2 µM) | 512 µg/mL (≈ 583 µM) | 256 µg/mL (≈ 291 µM) | 256 µg/mL (≈ 291 µM) | >512 µg/mL | >512 µg/mL | 256 µg/mL (≈ 291 µM) | 512 µg/mL (≈ 583 µM) | 512 µg/mL (≈ 583 µM)
CC(C)CC(N)C(=O)N(C)C(C)C(NC(=O)C(Cc1ccc(F)cc1)NC(=O)NC(Cc1ccc(O)cc1)C(=O)O)C(=O)NCC1CC(O)C(n2ccc(=O)[nH]c2=O)O1 [Compound 107, 1-[5′[(2S,3S)-N^2-[N-[[(1S)-1-Carboxy-4-hydroxyphenethyl]carbamoyl]-L-4-fluorophenylalanyl]-N^3-L-leucyl-N^3-methyl-2,3-diaminobutyramido]-3′,5′-dideoxy-α-L-arabinofuranosyl]uracil] | 64 µg/mL (≈ 77.4 µM) | <1 µg/mL | 16 µg/mL (≈ 19.3 µM) | >512 µg/mL | >512 µg/mL | >512 µg/mL | >512 µg/mL | 256 µg/mL (≈ 310 µM) | >512 µg/mL | 8 µg/mL (≈ 9.67 µM)
CC(C)CC(N)C(=O)N(C)C(C)C(NC(=O)C(CC(C)C)NC(=O)NC(Cc1c[nH]c2ccccc12)C(=O)O)C(=O)NCC1CC(O)C(n2ccc(=O)[nH]c2=O)O1 [Compound 108, 1-[5′[(2S,3S)-N^2-[N-[[(1S)-1-Carboxy-2-indol-3-ylethyl]carbamoyl]-L-leucyl]-N^3-L-leucyl-N^3-methyl-2,3-diaminobutyramido]-3′,5′-dideoxy-α-L-arabinofuranosyl]uracil] | 32 µg/mL (≈ 40.1 µM) | <1 µg/mL | 256 µg/mL (≈ 321 µM) | >512 µg/mL | 512 µg/mL (≈ 642 µM) | >512 µg/mL | >512 µg/mL | 256 µg/mL (≈ 321 µM) | 512 µg/mL (≈ 642 µM) | 16 µg/mL (≈ 20.1 µM)
CSCCC(NC(=O)NC(Cc1c[nH]c2ccccc12)C(=O)O)C(=O)NC(C(=O)NCC1CC(O)C(n2ccc(=O)[nH]c2=O)O1)C(C)N(C)C(=O)C(N)Cc1ccc(F)cc1 [Compound 110, 1-[5′-[(2S,3S)-N^2-[N-[[(1S)-1-Carboxy-2-indol-3-ylethyl]carbamoyl]-L-methionyl]-N^3-L-4-fluorophenylalanyl-N^3-methyl-2,3-diaminobutyramido]-3′,5′-dideoxy-α-L-arabinofuranosyl]uracil] | 32 µg/mL (≈ 36.9 µM) | 16 µg/mL (≈ 18.4 µM) | 512 µg/mL (≈ 590 µM) | 256 µg/mL (≈ 295 µM) | 256 µg/mL (≈ 295 µM) | >512 µg/mL | >512 µg/mL | 64 µg/mL (≈ 73.7 µM) | 512 µg/mL (≈ 590 µM) | 512 µg/mL (≈ 590 µM)
CSCCC(NC(=O)NC(Cc1c[nH]c2ccccc12)C(=O)O)C(=O)NC(C(=O)NCC1CC(O)C(n2ccc(=O)[nH]c2=O)O1)C(C)N(C)C(=O)C(N)Cc1ccccc1 [Compound 111, 1-[5′-[(2S,3S)-N^2-[N-([(1S)-1-Carboxy-2-indol-3-ylethyl]carbamoyl]-L-methionyl]-N^3-L-phenylalanyl-N^3-methyl-2,3-diaminobutyramido]-3′,5′-dideoxy-α-L-arabinofuranosyl]uracil] | 16 µg/mL (≈ 18.8 µM) | 8 µg/mL (≈ 9.41 µM) | 512 µg/mL (≈ 602 µM) | 256 µg/mL (≈ 301 µM) | 256 µg/mL (≈ 301 µM) | >512 µg/mL | >512 µg/mL | 128 µg/mL (≈ 151 µM) | 512 µg/mL (≈ 602 µM) | 512 µg/mL (≈ 602 µM)
